Assay results taken from PubChem BioAssay AID2060606 (Molecular Pharmacology Branch, DTP, NCI, 2025).
pIC50: −log10 of the molar value.

Tested on: 922993-354-T-J3-PDC complex spheroids, viability, % test/control
Experiment: Anticancer human tumor 922993-354-T-J3-PDC patient-derived endometrial carcinoma cell line growth inhibition [CLK]
Conditions: for pIC50: curve of first compound; for viability, T/C: stronger effect = lower value
From the text: A high-throughput screen of multi-cell type tumor spheroids was designed to identify active combinations of […] and targeted small molecules. Complex spheroids include a stromal component modeled by human endothelial cells (HUVEC) and fibroblasts modeled by human mesenchymal stem cells (MSCs). The concentration ranges selected for each drug and investigational agent were based upon clinically achievable concentrations if the clinical Cmax of the agent was known.
Compounds. The drugs and investigational agents: cirtuvivint (SM08502; NSC835563), CC-671 (NSC850746), vemurafenib (NSC761431), tapotoclax (NSC804041), sotorasib (NSC818433), adagrasib (NSC831453), MRTX-1133 (NSC836407), BAY2416964 (NSC825713), copanlisib (NSC816437), inavolisib (NSC800729), abemaciclib (NSC768073), osimertinib (NSC779217), entinostat (NSC756642), eltanexor (KPT-8602, NSC794443), venetoclax (NSC766270), ceralasertib (NSC777638), bortezomib (NSC756655), olaparib (NSC753686), talazoparib (NSC767125), alisertib (NSC759677), peposertib (NSC802822), gemcitabine (NSC613327), 5-fluorouracil (NSC19893), SN-38 (NSC673596), oxaliplatin (NSC266046), paclitaxel (NSC125973), and doxorubicin (NSC123127), were obtained from the National Cancer Institute (NCI) Developmental Therapeutics Program Chemical Repository. The FDA-approved anticancer drug set is available from the Developmental Therapeutics Program at https://dtp.cancer.gov/organization/dscb/obtaining/available plates.htm. […] The stock solutions were prepared in dimethyl sulfoxide (DMSO, Sigma-Aldrich, St. Louis, MO, cat. D2650), except for the platinum complexes which were prepared in saline (Quality Biological, Gaithersburg, MD, cat. 114-055-101), at 800-fold the tested concentration and stored at -70 degrees C prior to their use. All drugs and investigational agents were tested over a range starting from a high concentration at or near the clinical Cmax and decreasing in half-log increments. If the clinical Cmax for an agent had not been determined, the highest concentration tested was 10 microM.
Cell Culture. All cells were maintained in an incubator at 37 degrees C and 5% CO2 with 95% humidity. The PDC lines were cultured according to standard operating procedures established by the NCI PDMR. Briefly, all PDCs were thawed and cultured in Matrigel-coated flasks prepared with a working solution of 1X Ham's F-12 nutrient mix, without supplementation (Invitrogen, Waltham, MA, cat. 11765054), 100 U/mL penicillin-streptomycin (Invitrogen, cat. 15140122), and 2.5% Matrigel (Corning Inc., Corning, NY, cat. 354248) for the first three passages. The 947758-054-R-J2-PDC line was cultured in 6B/Colon 1A media, which includes advanced DMEM/F-12 (Thermo Fisher Scientific, cat. 12634028), 10 mM HEPES (Thermo Fisher Scientific, cat. 15630080), 1X GlutaMAX supplement (Thermo Fisher Scientific, cat. 35050061), 0.1 mg/mL primocin (InvivoGen, cat. ant-pm-2), 10% defined fetal bovine serum, heat inactivated (HyClone Laboratories Inc., cat. SH30070.03HI), 1.25 mM N-Acetyl-L-cysteine (Sigma-Aldrich, cat. A9165), 10 mM nicotinamide (Sigma-Aldrich, cat. N0636), 1X B-27 supplement (Thermo Fisher Scientific, cat. 17504044), 1X N-2 supplement (Thermo Fisher Scientific, cat. 17502048), and 10 microM Y-27632 dihydrochloride (Tocris Bioscience, cat. 1254). The 876862-298-R-J1-PDC was cultured in 6E media, which includes all 6B/Colon 1A media components plus 50% L-WRN conditioned media (ATCC, cat. CRL-3276), 50 ng/mL recombinant human EGF recombinant protein (hEGF; Thermo Fisher Scientific, cat. PHG0311), 10 ng/mL recombinant human fibroblast growth factor 10 (hGFG-10; PeproTech, cat. 100-26), 1 ng/mL recombinant human fibroblast growth factor 2 (hFGF-2; PeproTech, cat. 100-18B), and 1 µM prostaglandin E2 (PGE2; Tocris, cat. 2296). The 227483-062-R1-J1-PDC line was cultured in Panc media, containing all 6E components except hFGF-2, with the addition of 500 nM SB-431542 (Selleckchem, cat. S1067) and 10 nM gastrin (Tocris, cat. 3006). […]

[1] = second compound 0.0316 µM, first compound 0.0316 µM
[2] = second compound 0.0316 µM, first compound 0.1 µM
[3] = second compound 0.0316 µM, first compound 0.316 µM
[4] = second compound 0.0316 µM, first compound 1 µM
[5] = second compound 0.0316 µM, first compound 3.16 µM
[6] = second compound 0.0316 µM, first compound 10 µM
[7] = second compound 0.1 µM, first compound 0.0316 µM
[8] = second compound 0.1 µM, first compound 0.1 µM
[9] = second compound 0.1 µM, first compound 0.316 µM
[10] = second compound 0.1 µM, first compound 1 µM
[11] = second compound 0.1 µM, first compound 3.16 µM
[12] = second compound 0.1 µM, first compound 10 µM
[13] = second compound 0.316 µM, first compound 0.0316 µM
[14] = second compound 0.316 µM, first compound 0.1 µM
[15] = second compound 0.316 µM, first compound 0.316 µM
[16] = second compound 0.316 µM, first compound 1 µM
[17] = second compound 0.316 µM, first compound 3.16 µM
[18] = second compound 0.316 µM, first compound 10 µM
[19] = second compound 1 µM, first compound 0.0316 µM
[20] = second compound 1 µM, first compound 0.1 µM
[21] = second compound 1 µM, first compound 0.316 µM
[22] = second compound 1 µM, first compound 1 µM
[23] = second compound 1 µM, first compound 3.16 µM
[24] = second compound 1 µM, first compound 10 µM
[25] = second compound 3.16 µM, first compound 0.0316 µM
[26] = second compound 3.16 µM, first compound 0.1 µM
[27] = second compound 3.16 µM, first compound 0.316 µM
[28] = second compound 3.16 µM, first compound 1 µM
[29] = second compound 3.16 µM, first compound 3.16 µM
[30] = second compound 3.16 µM, first compound 10 µM
[31] = second compound 10 µM, first compound 0.0316 µM
[32] = second compound 10 µM, first compound 0.1 µM
[33] = second compound 10 µM, first compound 0.316 µM
[34] = second compound 10 µM, first compound 1 µM
[35] = second compound 10 µM, first compound 3.16 µM
[36] = second compound 10 µM, first compound 10 µM
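Also: spheroids exposed to the agents for 7 days before readout.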

Structure (SMILES): C#Cc1c(F)ccc2cc(O)cc(-c3ncc4c(N5CC6CCC(C5)N6)nc(OCC56CCCN5CC(F)C6)nc4c3F)c12 (stereo unspecified) + CN1CCN(c2cc(C(=O)Nc3cc4cc(-c5cnn(C)c5)ccc4cn3)ccn2)CC1
- pIC50 (second compound 0.0316 µM): < 5.00
- pIC50 (second compound 0.1 µM): < 5.00
- pIC50 (second compound 0.316 µM): 7.25
- pIC50 (second compound 1 µM): > 7.50
- pIC50 (second compound 3.16 µM): > 7.50
- pIC50 (second compound 10 µM): > 7.50
- viability, T/C [1]: 123%
- viability, T/C [2]: 113%
- viability, T/C [3]: 122%
- viability, T/C [4]: 107%
- viability, T/C [5]: 111%
- viability, T/C [6]: 93.3%
- viability, T/C [7]: 99.5%
- viability, T/C [8]: 105%
- viability, T/C [9]: 91.9%
- viability, T/C [10]: 92.4%
- viability, T/C [11]: 103%
- viability, T/C [12]: 88%
- viability, T/C [13]: 57%
- viability, T/C [14]: 47.9%
- viability, T/C [15]: 38.6%
- viability, T/C [16]: 42.1%
- viability, T/C [17]: 41.4%
- viability, T/C [18]: 41.3%
- viability, T/C [19]: 0.17%
- viability, T/C [20]: 0.42%
- viability, T/C [21]: 1.47%
- viability, T/C [22]: 0.44%
- viability, T/C [23]: 0.92%
- viability, T/C [24]: 0.14%
- viability, T/C [25]: 0.14%
- viability, T/C [26]: 0.2%
- viability, T/C [27]: 0.11%
- viability, T/C [28]: 0.11%
- viability, T/C [29]: 2.16%
- viability, T/C [30]: 2.87%
- viability, T/C [31]: 0.88%
- viability, T/C [32]: 0.85%
- viability, T/C [33]: 1.6%
- viability, T/C [34]: 0.15%
- viability, T/C [35]: 2.52%
- viability, T/C [36]: 3.71%

Structure (SMILES): C=C(F)C(=O)N1CCN(c2nc(OCC3CCCN3C)nc3c2CCN(c2cccc4cccc(Cl)c24)C3)CC1CC#N (stereo unspecified) + CN1CCN(c2cc(C(=O)Nc3cc4cc(-c5cnn(C)c5)ccc4cn3)ccn2)CC1
- pIC50 (second compound 0.0316 µM): 5.27
- pIC50 (second compound 0.1 µM): 5.25
- pIC50 (second compound 0.316 µM): > 7.50
- pIC50 (second compound 1 µM): > 7.50
- pIC50 (second compound 3.16 µM): > 7.50
- pIC50 (second compound 10 µM): > 7.50
- viability, T/C [1]: 121%
- viability, T/C [2]: 103%
- viability, T/C [3]: 118%
- viability, T/C [4]: 101%
- viability, T/C [5]: 94%
- viability, T/C [6]: 1.08%
- viability, T/C [7]: 106%
- viability, T/C [8]: 95.9%
- viability, T/C [9]: 92.6%
- viability, T/C [10]: 87%
- viability, T/C [11]: 110%
- viability, T/C [12]: 1.37%
- viability, T/C [13]: 50.1%
- viability, T/C [14]: 51.6%
- viability, T/C [15]: 36.4%
- viability, T/C [16]: 41.5%
- viability, T/C [17]: 45.6%
- viability, T/C [18]: 0.87%
- viability, T/C [19]: 0.79%
- viability, T/C [20]: 0.16%
- viability, T/C [21]: 0.83%
- viability, T/C [22]: 0.12%
- viability, T/C [23]: 0.11%
- viability, T/C [24]: 1.63%
- viability, T/C [25]: 0.14%
- viability, T/C [26]: 0.63%
- viability, T/C [27]: 0.92%
- viability, T/C [28]: 0.12%
- viability, T/C [29]: 0.11%
- viability, T/C [30]: 1.67%
- viability, T/C [31]: 0.19%
- viability, T/C [32]: 0.18%
- viability, T/C [33]: 0.88%
- viability, T/C [34]: 0.29%
- viability, T/C [35]: 0.19%
- viability, T/C [36]: 0.93%

Structure (SMILES): CC(CO)NC(=O)c1cc(-c2ccc(Cl)cc2)nn(-c2cnn(C)c2)c1=O (stereo unspecified) + CN1CCN(c2cc(C(=O)Nc3cc4cc(-c5cnn(C)c5)ccc4cn3)ccn2)CC1
- pIC50 (second compound 0.0316 µM): < 5.00
- pIC50 (second compound 0.1 µM): < 5.00
- pIC50 (second compound 0.316 µM): > 7.50
- pIC50 (second compound 1 µM): > 7.50
- pIC50 (second compound 3.16 µM): > 7.50
- pIC50 (second compound 10 µM): > 7.50
- viability, T/C [1]: 119%
- viability, T/C [2]: 98.2%
- viability, T/C [3]: 93.1%
- viability, T/C [4]: 98%
- viability, T/C [5]: 84.8%
- viability, T/C [6]: 96%
- viability, T/C [7]: 95.2%
- viability, T/C [8]: 77.1%
- viability, T/C [9]: 80.8%
- viability, T/C [10]: 69.5%
- viability, T/C [11]: 77.2%
- viability, T/C [12]: 72.1%
- viability, T/C [13]: 47.6%
- viability, T/C [14]: 49.6%
- viability, T/C [15]: 40%
- viability, T/C [16]: 33.6%
- viability, T/C [17]: 35.3%
- viability, T/C [18]: 35.9%
- viability, T/C [19]: 0.14%
- viability, T/C [20]: 0.16%
- viability, T/C [21]: 0.16%
- viability, T/C [22]: 0.12%
- viability, T/C [23]: 0.98%
- viability, T/C [24]: 1.3%
- viability, T/C [25]: 0.15%
- viability, T/C [26]: 0.63%
- viability, T/C [27]: 0.87%
- viability, T/C [28]: 1.29%
- viability, T/C [29]: 1.41%
- viability, T/C [30]: 0.14%
- viability, T/C [31]: 0.2%
- viability, T/C [32]: 0.21%
- viability, T/C [33]: 2%
- viability, T/C [34]: 0.26%
- viability, T/C [35]: 0.7%
- viability, T/C [36]: 1.23%
